Assay results from patent US20240041042A1, “1-(PYRIDYL)-5-AZINYLPYRAZOLE DERIVATIVES, AND THEIR USE FOR CONTROL OF UNDESIRED PLANT GROWTH” (Bayer Aktiengesellschaft, priority 2020, published 2024).
Like-named read-outs stand apart in the source and are kept apart here.

Experiments:
Type in all cases: in vivo
[1] = system: Abutilon theophrasti (ABUTH); test: Pre-emergence herbicidal action against ABUTH; settings: Dosage column 320 g/ha (title prints 3200 g/ha); scored visually after about 3 weeks; 100% = plants have died
Excerpt: Seeds of monocotyledonous and dicotyledonous weed plants and crop plants are placed in plastic or organic planting pots and covered with soil. The compounds of the invention, formulated in the form of wettable powders (WP) or as emulsion concentrates (EC), are then applied to the surface of the covering soil as aqueous suspension or emulsion with addition of 0.5% additive at a water application rate equivalent to 600 l/ha. After the treatment, the pots are placed in a greenhouse and kept under good growth conditions for the trial plants. After about 3 weeks, the effect of the preparations is scored visually in comparison with untreated controls as percentages. For example, 100% activity=the plants have died, 0% activity=like control plants.
Tables A1 to A13 below show the effects of selected compounds of the general formula (I) on various harmful plants and at an application rate corresponding to 320 g/ha or lower, which were obtained by the experimental procedure mentioned above. The appendices “a”, “b” and “c” give differentiation by dosage used with otherwise the same harmful plants tested.

[2] = system: Alopecurus myosuroides (ALOMY); test: Pre-emergence herbicidal action against ALOMY; settings: scored visually after about 3 weeks, 100% = plants have died
Procedure, shortened: (§1)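 Pre-emergence soil-surface spray of compound, formulated as wettable powder or emulsion concentrate, in aqueous suspension or emulsion with 0.5% additive (600 l/ha; rate 320 g/ha or less). Activity rated visually after roughly 3 weeks in the greenhouse as a percentage of untreated controls, 0% meaning no difference.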

[3] = system: Amaranthus retroflexus (AMARE); test: Pre-emergence herbicidal action against AMARE; settings: visual scoring after about 3 weeks vs untreated controls
Procedure, shortened: as §1

Avena fatua (AVEFA) [4] = test: Pre-emergence herbicidal action against AVEFA; settings: visual scoring after about 3 weeks vs untreated controls
Procedure, shortened: as §1

[5] = system: Echinochloa crus-galli (ECHCG); test: Pre-emergence herbicidal action against ECHCG; settings: dosage 320 g/ha
Procedure, shortened: as §1

Lolium rigidum (LOLRI) [6] = test: Pre-emergence herbicidal action against LOLRI
Procedure, shortened: as §1

[7] = system: Matricaria inodora (MATIN); test: Pre-emergence herbicidal action against MATIN; settings: dosage 320 g/ha
Procedure, shortened: as §1

[8] = system: Pharbitis purpurea (PHBPU); test: Pre-emergence herbicidal action against PHBPU; settings: dosage 320 g/ha
Procedure, shortened: as §1

[9] = system: Polygonum convolvulus (POLCO); test: Pre-emergence herbicidal action against POLCO
Procedure, shortened: as §1

Setaria viridis (SETVI) [10] = test: Pre-emergence herbicidal action against SETVI; settings: dosage 320 g/ha
Procedure, shortened: as §1

[11] = system: Verconica persica (VERPE); test: Pre-emergence herbicidal action against VERPE
Procedure, shortened: as §1

Viola tricolor (VIOTR) [12] = test: Pre-emergence herbicidal action against VIOTR
Procedure, shortened: as §1

[13] = system: Alopecurus myosuroides (ALOMY); test: Post-emergence herbicidal action against ALOMY; settings: visual rating about 3 weeks after treatment vs untreated controls (100% = plants have died, 0% = like control plants)
Procedure, shortened: (§2)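 Post-emergence greenhouse spray, one-leaf stage, 600 l/ha water plus 0.5% additive; WP or EC formulations; application rates 320 g/ha or lower. Visual % damage vs untreated controls at ~3 weeks.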

[14] = system: Amaranthus retroflexus (AMARE); test: Post-emergence herbicidal action against AMARE
Procedure, shortened: as §2

Avena fatua (AVEFA) [15] = test: Post-emergence herbicidal action against AVEFA; settings: visual rating about 3 weeks after treatment
Procedure, shortened: as §2

[16] = system: Echinochloa crus-galli (ECHCG); test: Post-emergence herbicidal action against ECHCG; settings: dosage 320 g/ha
Procedure, shortened: as §2

Lolium rigidum (LOLRI) [17] = test: Post-emergence herbicidal action against LOLRI
Procedure, shortened: as §2

[18] = system: Pharbitis purpurea (PHBPU); test: Post-emergence herbicidal action against PHBPU
Procedure, shortened: as §2

[19] = system: Polygonum convolvulus (POLCO); test: Post-emergence herbicidal action against POLCO; settings: dosage 320 g/ha
Procedure, shortened: as §2

Setaria viridis (SETVI) [20] = test: Post-emergence herbicidal action against SETVI
Procedure, shortened: as §2

[21] = system: Verconica persica (VERPE); test: Post-emergence herbicidal action against VERPE
Procedure, shortened: as §2

Viola tricolor (VIOTR) [22] = test: Post-emergence herbicidal action against VIOTR
Procedure, shortened: as §2

Oryza sativa (ORYSA) = settings: crop plant compatibility
Procedure, shortened: (§3)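 Test crops were treated 2 to 3 weeks after sowing, once they reached one leaf, by spraying compound in water with 0.5% additive at 600 l/ha. Visual scoring compared them with untreated controls roughly 3 weeks on, and appendices a, b and c denote different doses.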

Zea mays (ZEAMX) = system: Zea mays (ZEAMX)
Procedure, shortened: as §3

Compound: C[C@@H](Oc1nn(-c2ccccn2)c(-c2cncnc2)c1Cl)C(=O)O [Example I-20]
- Pre-emergence action against ABUTH [1]: 90%
- Pre-emergence action against ALOMY ([2]; 80 g/ha): 90%
- Pre-emergence action against ALOMY ([2]; 320 g/ha): 100%
- Pre-emergence action against AMARE in % ([3]; 80 g/ha): 100%
- Pre-emergence action against AMARE in % ([3]; 320 g/ha): 100%
- Pre-emergence action against AVEFA in % (Avena fatua (AVEFA) [4]; 80 g/ha): 90%
- Pre-emergence action against AVEFA in % (Avena fatua (AVEFA) [4]; 320 g/ha): 100%
- Pre-emergence action against ECHCG in % [5]: 100%
- Pre-emergence action against LOLRI in % (Lolium rigidum (LOLRI) [6]; dosage 80 g/ha): 100%
- Pre-emergence action against LOLRI in % (Lolium rigidum (LOLRI) [6]; dosage 320 g/ha): 100%
- Pre-emergence action against MATIN in % [7]: 100%
- Pre-emergence action against PHBPU in % [8]: 90%
- Pre-emergence action against POLCO in % ([9]; dosage 80 g/ha): 90%
- Pre-emergence action against POLCO in % ([9]; dosage 320 g/ha): 100%
- Pre-emergence action against SETVI in % (Setaria viridis (SETVI) [10]): 100%
- Pre-emergence action against VERPE in % ([11]; dosage 320 g/ha): 100%
- Pre-emergence action against VIOTR in % (Viola tricolor (VIOTR) [12]; 320 g/ha, Viola tricolor): 100%
- Pre-emergence action against VIOTR in % (Viola tricolor (VIOTR) [12]; dosage 80 g/ha): 100%
- Post-emergence action against ALOMY in % ([13]; 80 g/ha): 100%
- Post-emergence action against ALOMY in % ([13]; 320 g/ha): 100%
- Post-emergence action against AMARE in % ([14]; 80 g/ha, visual rating about 3 weeks after treatment vs untreated controls (100% = plants have died, 0% = like control plants)): 90%
- Post-emergence action against AMARE in % ([14]; 320 g/ha, visual rating about 3 weeks after treatment): 90%
- Post-emergence action against AVEFA in % (Avena fatua (AVEFA) [15]; 80 g/ha): 90%
- Post-emergence action against AVEFA in % (Avena fatua (AVEFA) [15]; 320 g/ha): 90%
- Post-emergence action against ECHCG in % [16]: 80%
- Post-emergence action against LOLRI in % (Lolium rigidum (LOLRI) [17]; dosage 80 g/ha): 90%
- Post-emergence action against LOLRI in % (Lolium rigidum (LOLRI) [17]; dosage 320 g/ha): 90%
- Post-emergence action against PHBPU in % ([18]; dosage 80 g/ha): 90%
- Post-emergence action against PHBPU in % ([18]; dosage 320 g/ha): 90%
- Post-emergence action against POLCO in % [19]: 80%
- Post-emergence action against SETVI in % (Setaria viridis (SETVI) [20]; dosage 320 g/ha): 90%
- Post-emergence action against VERPE in % ([21]; 320 g/ha, VERPE): 80%
- Post-emergence action against VIOTR in % (Viola tricolor (VIOTR) [22]; 80 g/ha): 90%
- Post-emergence action against VIOTR in % (Viola tricolor (VIOTR) [22]; 320 g/ha): 90%

Compound: C[C@@H](Oc1nn(-c2ncccc2F)c(-c2ccc(F)nc2)c1Br)C(=O)OCc1ccccn1 [Example I-52]
- Pre-emergence action against ABUTH [1]: 80%
- Pre-emergence action against ALOMY ([2]; 80 g/ha): 90%
- Pre-emergence action against ALOMY ([2]; 320 g/ha): 100%
- Pre-emergence action against AMARE in % ([3]; 80 g/ha): 80%
- Pre-emergence action against AMARE in % ([3]; 320 g/ha): 100%
- Pre-emergence action against AVEFA in % (Avena fatua (AVEFA) [4]; 80 g/ha): 90%
- Pre-emergence action against AVEFA in % (Avena fatua (AVEFA) [4]; 320 g/ha): 100%
- Pre-emergence action against ECHCG in % [5]: 100%
- Pre-emergence action against LOLRI in % (Lolium rigidum (LOLRI) [6]; dosage 80 g/ha): 90%
- Pre-emergence action against LOLRI in % (Lolium rigidum (LOLRI) [6]; dosage 320 g/ha): 100%
- Pre-emergence action against MATIN in % [7]: 90%
- Pre-emergence action against PHBPU in % [8]: 90%
- Pre-emergence action against POLCO in % ([9]; dosage 320 g/ha): 90%
- Pre-emergence action against SETVI in % (Setaria viridis (SETVI) [10]): 100%
- Pre-emergence action against VERPE in % ([11]; dosage 80 g/ha): 80%
- Pre-emergence action against VERPE in % ([11]; dosage 320 g/ha): 100%
- Pre-emergence action against VIOTR in % (Viola tricolor (VIOTR) [12]; 320 g/ha, Viola tricolor): 100%
- Pre-emergence action against VIOTR in % (Viola tricolor (VIOTR) [12]; dosage 80 g/ha): 100%
- Post-emergence action against ALOMY in % ([13]; 80 g/ha): 90%
- Post-emergence action against AVEFA in % (Avena fatua (AVEFA) [15]; 80 g/ha): 90%
- Post-emergence action against LOLRI in % (Lolium rigidum (LOLRI) [17]; dosage 80 g/ha): 80%
- Post-emergence action against SETVI in % (Setaria viridis (SETVI) [20]; dosage 80 g/ha): 80%
- Post-emergence action against VERPE in % ([21]; dosage 80 g/ha): 90%
- Post-emergence action against ORYSA in % (Oryza sativa (ORYSA); 20 g/ha, effect vs untreated controls): 0%
- Post-emergence action against ORYSA in % (Oryza sativa (ORYSA); 80 g/ha, effect in comparison to untreated controls): 10%
- Post-emergence action against ZEAMX in % (crop plant compatibility) (Zea mays (ZEAMX); 20 g/ha, ZEAMX, effect in comparison to untreated controls): 0%
- Post-emergence action against ZEAMX in % (Zea mays (ZEAMX); crop plant compatibility, 80 g/ha, effect vs untreated controls): 10%
